The results in this text go back to patent publication US7595401B2, “Therapeutic compounds and their use in cancer” (Myriad Pharmaceuticals, Inc., priority 2006, dated 2009).

The subject of the first assay is purified human Hsp90. Kind of assay: Binding Assay: fluorescence polarization with BODIPY-labeled geldanamycin. Conditions: 5 μM compound, BODIPY-GM 10 nM, Hsp90 30 nM. How it is done:
Compound binding to purified Hsp90 was monitored using BODIPY-labeled geldanamycin (BODIPY-GM) in a fluorescence polarization assay adapted from Kim et al. (Journal of Biomolecular Screening 2004, 9(5):375-381). Compound dilutions (in 100% DMSO) were added to black-bottom 96-well plates (Greiner; 2% DMSO final), and equal volumes of BODIPY-GM (10 nM final) and purified human Hsp90 (Stressgen, SPP-770; 30 nM final) in assay buffer (20 mM HEPES-KOH pH 7.3, 50 mM KCl, 5 mM MgCl2, 20 mM Na2MoO4, 0.01% NP-40, 0.1 mg/mL bovine gamma globulin [Invitrogen, P2045], 2 mM DTT) were added sequentially to yield a final volume of 50 microliters. Plates were incubated overnight at room temperature. Parallel and perpendicular fluorescence measurements were read (LJL BioSystems Analyst AD plate reader) with excitation/emission wavelengths of 485/530 nm. Background fluorescence (buffer only) was subtracted, and fluorescence polarization (FP) values, expressed in mP units, were calculated from parallel and perpendicular fluorescence readings as follows: FP=(parallel−perpendicular)/(parallel+perpendicular)*1000
Percent inhibition was calculated by normalizing the FP values to those obtained in parallel reactions containing DMSO and subtracting these normalized values from 100%. Intrinsic compound fluorescence was independently monitored, and FP data points confounded by compound fluorescence were excluded from the analysis.
Take `COc1cc(Br)c(Sc2nc3c(N)ncn(CCC4CCN(C(C)=O)CC4)c-3n2)cc1OC` [Example 566, 3-[2-(1-Acetylpiperidin-4-yl)ethyl]-8-[(2-bromo-4,5-dimethoxyphenyl)thio]-3 H-purin-6-amine]: the “% Inhibition at 5 μM Compound Concentration” value (from here on “% Inhibition”) was 1.00%. Turning to `Nc1ncn(CCC2CCN(C(=O)OCc3ccccc3)CC2)c2nc(Sc3cc4c(cc3Br)OCO4)nc1-2` [Example 410, Benzyl 4-(2-{6-amino-8-[(6-bromo-1,3-benzodioxol-5-yl)thio]-3H-purin-3-yl}ethyl)piperidine-1-carboxylate], the “% Inhibition” value is given as 11%. In the case of `CC(=O)N1CCC(CCn2cnc(N)c3nc(Sc4cc5c(cc4Br)OCO5)nc2-3)CC1` [Example 365, 3-[2-(1-Acetylpiperidin-4-yl)ethyl]-8-[(6-bromo-1,3-benzodioxol-5-yl)thio]-3H-purin-6-amine], the “% Inhibition” value stood at 31%.

Still in this assay, the particulars now being: BODIPY-GM 10 nM, Hsp90 30 nM.
`COc1ccc(OC)c(Sc2nc3c(N)ncnc3n2CCc2ccc(F)cc2Cl)c1` [Example 139, 9-[2-(2-chloro-4-fluoro-phenyl)-ethyl]-8-(2,5-dimethoxy-phenylsulfanyl)-9H-purin-6-ylamine] returned an IC50 of 90 nM. This lies in the double-digit nanomolar range. `COc1ccc(I)c(Sc2nc3c(N)ncnc3n2CCc2ccc(I)cc2)c1` [Example 310, 8-[(2-Iodo-5-methoxyphenyl)thio]-9-[2-(4-iodophenyl)ethyl]-9H-purin-6-amine]: the IC50 was > 25000 nM. As to `COc1ccc(OC)c(Sc2nc3c(N)ncnc3n2CCc2cc(C)ccc2C)c1` [Example 115, 8-(2,5-Dimethoxy-phenylsulfanyl)-9-[2-(2,5-dimethyl-phenyl)-ethyl]-9H-purin-6-ylamine], the half-maximal inhibitory concentration (IC50) stood at 110 nM. This lies in the sub-micromolar range. Same read-out and setting: the result for `Nc1ncnc2c1nc(Sc1cc3c(cc1Br)OCO3)n2CCc1ccc2ccccc2c1` [Example 302, 8-[(6-Bromo-1,3-benzodioxol-5-yl)thio]-9-[2-(2-naphthyl)ethyl]-9H-purin-6-amine] reads > 25000 nM; that for `CC(C)(C)C(=O)N1CCCC(CCn2c(Sc3cc4c(cc3Br)OCO4)nc3c(N)ncnc32)C1` (centres unmarked) [Example 449, 8-[(6-Bromo-1,3-benzodioxol-5-yl)thio]-9-{2-[1-(2,2-dimethylpropanoyl)piperidin-3-yl]ethyl}-9H-purin-6-amine], 200 nM; that for `C[C@@H](NC(=O)OC(C)(C)C)C(=O)N1CCC(CCn2c(Sc3cc4c(cc3Br)OCO4)nc3c(N)ncnc32)CC1` [Example 695, tert-Butyl{(1R)-2-[4-(2-{6-amino-8-[(6-bromo-1,3-benzodioxol-5-yl)thio]-9H-purin-9-yl}ethyl)piperidin-l-yl]-1-methyl-2-oxoethyl}carbamate], 410 nM. For `COc1cccc(Sc2nc3c(N)ncnc3n2CC(=O)c2ccccc2)c1` [Example 298, 2-{6-Amino-8-[(3-methoxyphenyl)thio]-9H-purin-9-yl}-1-phenylethanone], the IC50 was > 25000 nM.

Take `CC(=O)N1CCCC(CCn2c(Sc3cc4c(cc3Br)OCO4)nc3c(N)ncnc32)C1` (centres unmarked) [Example 400, 9-[2-(1-Acetylpiperidin-3-yl)ethyl]-8-[(6-bromo-1,3-benzodioxol-5-yl)thio]-9H-purin-6-amine]: the IC50 is 6000 nM. `Nc1ncnc2c1nc(Sc1cc3c(cc1Br)OCO3)n2CCCC1CCCCN1` (centres unmarked) [Example 646, 8-[(6-bromo-1,3-benzodioxol-5-yl)thio]-9-(3-piperidin-2-ylpropyl)-9H-purin-6-amine] yielded an IC50 of 60 nM. For `COC(=O)c1ccnc(Sc2nc3c(N)ncnc3n2CCC2CCN(C=O)CC2)c1` [Example 542, Methyl 2-({6-amino-9-[2-(1-formylpiperidin-4-yl)ethyl]-9 H-purin-8-yl}thio)isonicotinate], the IC50 was > 5000 nM.

Compound `Nc1ncnc2c1nc(Sc1cc3c(cc1Br)OCO3)n2CCC1CCCCN1S(=O)(=O)C(F)(F)F` (centres unmarked) [Example 396, 8-[(6-Bromo-1,3-benzodioxol-5-yl)thio]-9-(2-{1-[(trifluoromethyl)sulfonyl]piperidin 2-yl}ethyl)-9H-purin-6-amine] registered an IC50 of 810 nM.
